Source: patent publication US20260262643A1, “HERBICIDAL BENZOXAZINES” (FMC CORPORATION, priority 2022, published 2026)

What was measured:
barnyardgrass [1] = assay: Test A postemergence; format: in vivo, Echinochloa crusgalli; details: 1000 g ai/ha, Postemergence; 0 to 100 scale
In short: (§1)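 Plants were grown in loam and sand and treated preemergence or postemergence (one- to two-leaf stage, 2–10 cm) with compound in solvent plus surfactant. Response was scored against untreated controls after 10 greenhouse days, where 0 means no effect and 100 complete control.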

wheat = assay: Test A postemergence; format: in vivo, Triticum aestivum; details: 1000 g ai/ha, Postemergence; 0 to 100 scale
In short: as §1

blackgrass = assay: Test A postemergence; format: in vivo, Alopecurus myosuroides; details: 1000 g ai/ha, Postemergence; 0 to 100 scale
In short: as §1

Pigweed, Redroot [2] = assay: Test A preemergence; format: in vivo, Amaranthus retroflexus; details: 1000 g ai/ha, 0 to 100 scale (0 no effect, 100 complete control), 10 days
From the text: (§2) Seeds of plant species selected from barnyardgrass (Echinochloa crusgalli), blackgrass (Alopecurus myosuroides), corn (Zea mays), foxtail, giant (giant foxtail, Setaria faberi), goosegrass (Eleusine indica), kochia (Bassia scoparia), oat, wild (wild oat, Avena fatua), pigweed, palmer (palmer amaranth, palmer pigweed, Amaranthus palmeri), Pigweed, Redroot (redroot pigweed, Amaranthus retroflexus), ragweed (common ragweed, Ambrosia artemisiifolia), ryegrass, Italian (italian ryegrass, Lolium multiflorum), soybean (Glycine max), and wheat (Triticum aestivum) were planted into a blend of loam soil and sand and treated preemergence with a directed soil spray using test chemicals formulated in a non-phytotoxic solvent mixture which included a surfactant. At the same time, plants selected from these crops and weed species and also galium (catchweed bedstraw, Galium aparine) and horseweed (Erigeron canadensis) were planted in pots containing the same blend of loam soil and sand and treated with postemergence applications of test chemicals formulated in the same manner. Plants ranged in height from 2 to 10 cm and were in the one- to two-leaf stage for the postemergence treatment. Treated plants and untreated controls were maintained in a greenhouse for 10 days, after which time all treated plants were compared to untreated controls and visually evaluated for injury. Plant response ratings, summarized in Table A, are based on a 0 to 100 scale where 0 is no effect and 100 is complete control. A dash (-) response means no test result.

ryegrass, Italian [3] = assay: Test A postemergence; format: in vivo, Lolium multiflorum; details: 1000 g ai/ha, Postemergence; 0 to 100 scale
In short: as §1

Pigweed, Redroot [4] = assay: Test A postemergence; format: in vivo, Amaranthus retroflexus; details: 1000 g ai/ha, Postemergence; 0 to 100 scale
From the text: as §2

ducksalad = assay: Test B flooded paddy test; format: in vivo, Heteranthera limosa; details: 250 g ai/ha, Flood, 13 days, 0 to 100 scale (0 no effect, 100 complete control)
In short: (§3)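 Application into standing water (3 cm above soil) at the two-leaf stage; flood depth held constant. Evaluation: day 13, visual comparison with controls, 0 = no injury, 100 = complete control.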

sedge, umbrella = assay: Test B flooded paddy test; format: in vivo, Cyperus difformis; details: 250 g ai/ha, Flood, 13 days, 0 to 100 scale (0 no effect, 100 complete control)
In short: as §3

barnyardgrass [5] = assay: Test A preemergence; format: in vivo, Echinochloa crusgalli; details: 1000 g ai/ha, 0 to 100 scale (0 no effect, 100 complete control), 10 days
In short: as §1

ryegrass, Italian [6] = assay: Test A preemergence; format: in vivo, Lolium multiflorum; details: 1000 g ai/ha, 0 to 100 scale (0 no effect, 100 complete control), 10 days
In short: as §1

foxtail, giant [7] = assay: Test A preemergence; format: in vivo, Setaria faberi; details: 1000 g ai/ha, 0 to 100 scale (0 no effect, 100 complete control), 10 days
In short: as §1

rice = assay: Test B flooded paddy test; format: in vivo, Oryza sativa; details: 250 g ai/ha, Flood, 13 days, 0 to 100 scale (0 no effect, 100 complete control)
In short: as §3

ragweed [8] = assay: Test A postemergence; format: in vivo, Ambrosia artemisiifolia; details: 1000 g ai/ha, Postemergence; 0 to 100 scale
In short: as §1

kochia [9] = assay: Test A preemergence; format: in vivo, Bassia scoparia; details: 1000 g ai/ha, 0 to 100 scale (0 no effect, 100 complete control), 10 days
In short: as §1

ragweed [10] = assay: Test A preemergence; format: in vivo, Ambrosia artemisiifolia; details: 1000 g ai/ha, 0 to 100 scale (0 no effect, 100 complete control), 10 days
In short: as §1

corn = assay: Test A postemergence; format: in vivo, Zea mays; details: 1000 g ai/ha, Postemergence; 0 to 100 scale
In short: as §1

barnyardgrass [11] = assay: Test B flooded paddy test; format: in vivo, Echinochloa crus-galli; details: 250 g ai/ha, Flood, 13 days, 0 to 100 scale (0 no effect, 100 complete control)
In short: as §3

foxtail, giant [12] = assay: Test A postemergence; format: in vivo, Setaria faberi; details: 1000 g ai/ha, Postemergence; 0 to 100 scale
In short: as §1

kochia [13] = assay: Test A postemergence; format: in vivo, Bassia scoparia; details: 1000 g ai/ha, Postemergence; 0 to 100 scale
In short: as §1

galium = assay: Test A postemergence; format: in vivo, Galium aparine; details: 1000 g ai/ha, Postemergence; 0 to 100 scale
In short: as §1

| SMILES | Plant response rating, Barnyardgrass (barnyardgrass [1]) | Plant response rating, Wheat (wheat) | Plant response rating, Blackgrass (blackgrass) | Plant response rating, Pigweed, Redroot (Pigweed, Redroot [2]) | Plant response rating, Ryegrass, Italian (ryegrass, Italian [3]) | Plant response rating, Pigweed, Redroot (Pigweed, Redroot [4]) | Plant response rating, Ducksalad (ducksalad) | Plant response rating, Sedge, Umbrella (sedge, umbrella) | Plant response rating, Barnyardgrass (barnyardgrass [5]) | Plant response rating, Ryegrass, Italian (ryegrass, Italian [6]) | Plant response rating, Foxtail, Giant (foxtail, giant [7]) | Plant response rating, Rice (rice) | Plant response rating, Ragweed (ragweed [8]) | Plant response rating, Kochia (kochia [9]) | Plant response rating, Ragweed (ragweed [10]) | Plant response rating, Corn (corn) | Plant response rating, Barnyardgrass (barnyardgrass [11]) | Plant response rating, Foxtail, Giant (foxtail, giant [12]) | Plant response rating, Kochia (kochia [13]) | Plant response rating, Galium (galium) |
| --- | --- | --- | --- | --- | --- | --- | --- | --- | --- | --- | --- | --- | --- | --- | --- | --- | --- | --- | --- | --- |
| C#Cc1cccc2c1OC(C)CN2C(=O)c1cccc(-n2cncn2)c1 (stereo not drawn) [Compound 30] | 20 | 40 | 70 | 100 | 70 | 30 | 0 | 0 | 30 | 100 | 80 | 0 | 0 | 20 | 0 | 10 | 0 | 40 | 10 | – |
| Cc1cccc2c1OC(C)CN2C(=O)c1cccc(-n2cncn2)c1 (stereo not drawn) [Compound 21] | 90 | 70 | 80 | 100 | 80 | 60 | 65 | 35 | 100 | 100 | 100 | 0 | 40 | 70 | 70 | 90 | 0 | 90 | 40 | 80 |
| C[C@H]1CN(C(=O)c2cccc(-n3cnnn3)c2)c2cccc(Cl)c2O1 [Compound 115] | 50 | 50 | 50 | 80 | 60 | 30 | 0 | 0 | 70 | 90 | 90 | 0 | 0 | 40 | 30 | 40 | 0 | 40 | 0 | 70 |
| Cc1cccc2c1OC(C)CN2C(=O)c1ccc(C#N)c(-n2cncn2)c1 (stereo not drawn) [Compound 29] | 70 | 60 | 70 | 60 | 50 | 50 | 0 | 0 | 90 | 90 | 100 | 0 | 0 | 20 | 0 | 80 | 0 | 90 | 10 | – |
| C[C@H]1CN(C(=O)c2cccc(-n3cnnc3)c2)c2cccc(Cl)c2O1 [Compound 128] | 30 | 0 | 30 | 0 | 0 | 0 | – | – | 0 | 60 | 50 | – | 30 | 40 | 0 | 0 | – | 20 | 0 | 30 |
| CC1CN(C(=O)c2cccc(-n3cncn3)c2)c2cccc(Br)c2O1 (stereo not drawn) [Compound 25] | 50 | 70 | 90 | 100 | 90 | 40 | 35 | 0 | 90 | 100 | 100 | 0 | 0 | 30 | 0 | 70 | 0 | 90 | 50 | – |
| C[C@H]1CN(C(=O)c2cccc(-c3ccncc3)c2)c2cccc(Cl)c2O1 [Compound 123] | 20 | 0 | 20 | 30 | 30 | 60 | – | – | 40 | 30 | 0 | – | 0 | 30 | 30 | 0 | – | 10 | 20 | 50 |
